The test system of one data set is Boophilus microplus. The data set is described as follows: Boophilus microplus injection test. Type of data set: in vivo. The conditions noted are these: 20 μg/animal; assessed after 7 days. As for the experimental part: (§1) • Solvent: dimethyl sulfoxide
1 μl of the active ingredient solution is injected into the abdomen of 5 engorged adult female cattle ticks (Boophilus microplus). The animals are transferred into dishes and kept in a climate-controlled room.

Another data set has as its system Spodoptera frugiperda. Nature of the data set: Spodoptera frugiperda spray test. The format is in vivo. The conditions noted are these: 100 g/ha, after 7 days.
For a further data set, the system named is Phaedon cochleariae. Nature of the data set: Phaedon cochleariae spray test. The conditions noted are these: for efficacy: 100 g/ha, after 7 days.
The subject of data set [1] is Tetranychus urticae. Nature of the data set: Tetranychus urticae spray test, OP-resistant (bean plants). Type of data set: in vivo. The conditions noted are these: 4 ppm; after 7 days. Here is the method:
To produce further test concentrations, the latter is diluted with emulsifier-containing water. When addition of ammonium salts and/or penetrants is required, these are each added at a concentration of 1000 ppm to the preparation solution.
Bean plants (Phaseolus vulgaris), which are heavily infested by all stages of the greenhouse red spider mite (Tetranychus urticae), are treated by being sprayed with the active compound preparation at the desired concentration.

The subject of data set [2] is Ctenocephalides felis. Nature of the data set: Ctenocephalides felis in vitro contact test with adult cat fleas. The format is in vivo. The conditions noted are these: application rate 5 μg/cm^2 (=500 g/ha); after 48 h; dead or moribund fleas. The gist of the method: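 After 48 h at room temperature and ambient humidity, adult cat fleas (5–10 per tube) were scored, with motionless or uncoordinated fleas counted dead or moribund. Tubes had been coated with acetone solutions of compound, the 900 ppm solution giving 5 μg/cm². Efficacy: 100% means all fleas dead or moribund, 0% none harmed.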

Data set [3] relates to cattle ticks (Boophilus microplus) Parkhurst strain, SP-resistant. The data set is described as follows: Boophilus microplus dip test. Type of data set: in vivo. The conditions noted are these: 100 ppm; assessed after 7 days. Here is the method: • Test animals: cattle ticks (Boophilus microplus) Parkhurst strain, SP-resistant • Solvent: dimethyl sulfoxide
10 mg of active ingredient are dissolved in 0.5 ml of dimethyl sulfoxide. To produce a suitable formulation, the active ingredient solution is diluted with water to the concentration desired in each case.
This active ingredient formulation is pipetted into tubes. 8-10 engorged adult female cattle ticks (Boophilus microplus) are transferred into a further tube with holes. The tube is immersed into the active ingredient formulation, and all the ticks are completely wetted. After the liquid has run out, the ticks are transferred on filter discs into plastic dishes and stored in a climate-controlled room.
Efficacy is assessed after 7 days by laying of fertile eggs. Eggs which are not visibly fertile are stored in a climate-controlled cabinet until the larvae hatch after about 42 days. An efficacy of 100% means that none of the ticks has laid any fertile eggs; 0% means that all the eggs are fertile.

For the next data set, the system named is Musca domestica. The data set is described as follows: Musca domestica test. Type of data set: in vivo. The conditions noted are these: 100 ppm; adult houseflies; after 2 days. As for the experimental part:
as §1
To produce a suitable active ingredient formulation, 10 mg of active ingredient are mixed with 0.5 ml of dimethyl sulfoxide, and the concentrate is diluted with water to the desired concentration.
Vessels containing a sponge treated with sugar solution and the active ingredient formulation of the desired concentration are populated with 10 adult houseflies (Musca domestica).

Another data set deals with Rhipicephalus sanguineus. Nature of the data set: Rhipicephalus sanguineus in vitro contact test with adult brown dog ticks. Type of data set: in vivo. The conditions noted are these: after 48 h. The gist of the method: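 Efficacy, as % of ticks dead or moribund, was judged 48 h after placing 5-10 adult brown dog ticks in acetone-coated tubes (5 μg/cm^2 from 900 ppm) kept dark at room temperature. Ticks unable to climb away from a 45-50° C hotplate within 5 min counted as affected.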

The test system of data set [4] is Ctenocephalides felis. Nature of the data set: Ctenocephalides felis oral test. The format is in vivo. The conditions noted are these: 100 ppm in citrated cattle blood; after 2 days.
Data set [5] concerns Amaranthus retroflexus (AMARE). Nature of the data set: Herbicidal activity, pre-emergence. The format is in vivo. The conditions noted are these: 1280 g/ha, 3 weeks. From the text: Seeds of monocotyledonous and dicotyledonous weed plants and crop plants were placed in wood-fibre pots in sandy loam and covered with soil. The compounds according to the invention, formulated as emulsion concentrates (EC), were then applied to the surface of the covering soil as an emulsion at a water application rate equating to 600 to 800 Uha with addition of 0.2% wetting agent.
After the treatment, the pots were placed in a greenhouse and kept under good growth conditions for the test plants. The damage to the test plants was scored visually after a test period of 3 weeks by comparison with untreated controls (herbicidal activity in percent (%): 100% activity=the plants have died, 0% activity=like control plants). Here, for example, compounds No. Ia-17, Ia-37, Ia-28 and Ia-56 at an application rate of 1280 g/ha each show 100% efficacy against Amaranthus retroflexus (AMARE) and with the exception of Ia-56, even against Viola tricolor (VIOTR). Furthermore, compounds no. Ia-17, Ia-37 and Ia-28 at the same application rate show an 80% or better efficacy against Matricaria inodorae (MATIN) and Ia-17 and Ia-37 even against Stellaria media (STEME).

The test system of data set [6] is Anopheles gambiae strain RSPH (homozygot kdr). Nature of the data set: whole plant or invertebrate. Type of data set: in vivo. The conditions noted are these: read-out: efficacy (mortality). As for the experimental part: (§2) • Solvent: acetone+2000 ppm rapeseed oil methyl ester (RME)
To produce a suitable active compound formulation, the active compound is dissolved in the solvent (2 mg/ml). The active compound formulation is pipetted onto a glazed tile and, after it has dried off, adult mosquitoes of the species Anopheles gambiae strain RSPH (homozygot kdr) are placed onto the treated tile. The exposure time is 30 minutes.

In data set [7] the test system is Aedes aegypti strain MONHEIM. The data set is described as follows: whole plant or invertebrate. The format is in vivo. The conditions noted are these: read-out: efficacy (mortality). As for the experimental part:
as §2
To produce a suitable active compound formulation, the active compound is dissolved in the solvent (2 mg/ml). The active compound formulation is pipetted onto a glazed tile and, after it has dried off, adult mosquitoes of the species Aedes aegypti strain MONHEIM are placed onto the treated tile. The exposure time is 30 minutes.

Data set [8] relates to Tetranychus urticae. Nature of the data set: Tetranychus urticae spray test, OP-resistant (bean leaf discs). Type of data set: in vivo. The conditions noted are these: 100 g/ha; after 6 days. As for the experimental part:
(§3) After 6 days, the efficacy in % is determined.

For another data set, the system named is Myzus persicae. Nature of the data set: Myzus persicae spray test (Chinese cabbage leaf discs). Type of data set: in vivo. The conditions noted are these: 100 g/ha; after 6 days. Here is the method: as §3
The test system of the next data set is Meloidogyne incognita. Nature of the data set: Meloidogyne incognita test. The format is in vivo. The conditions noted are these: 20 ppm; after 14 days. Here is the method:
• Solvent: 125.0 parts by weight of acetone
To produce a suitable active compound preparation, 1 part by weight of active compound is mixed with the stated amount of solvent and the concentrate is diluted to the desired concentration with water.
Vessels are filled with sand, active compound solution, an egg/larvae suspension of the southern root-knot nematode (Meloidogyne incognita) and lettuce seeds. The lettuce seeds germinate and the plants develop. The galls develop on the roots.
After 14 days, the nematicidal efficacy in % is determined by the formation of galls. 100% means that no galls were found; 0% means that the number of galls on the treated plants corresponds to the untreated control.

The mark [9] stands for this setting: application rate 5 μg/cm^2 (=500 g/ha), dead or moribund ticks.

Results on eight molecules are retold here after US10357036B2, “Compounds for controlling arthropods” (priority 2015, dated 2019).

Like-named read-outs stand apart in the source and are kept apart here.

Regarding `CCC(=O)NCc1cc(-c2cnn(-c3c(Cl)cc(C(F)(C(F)(F)F)C(F)(F)F)cc3OC(F)F)c2)ccc1Cl` [Ia-51], the “efficacy (laying of fertile eggs)” value (with Boophilus microplus; in [3]) was 100% in each case. The efficacy in the data set on Spodoptera frugiperda turned out to be 100%; in the data set on Phaedon cochleariae it was 100%; with Tetranychus urticae [1], 99%; in the data set with Ctenocephalides felis [2], 100%; in the data set on Rhipicephalus sanguineus (setting [9]), 100%. Further, the “efficacy (rate of extermination)” value with Musca domestica and in the data set with Ctenocephalides felis [4] was 100% in each case.

Regarding `CC(=O)NCc1cc(-c2cnn(-c3c(Cl)cc(C(F)(C(F)(F)F)C(F)(F)F)cc3OC(F)F)c2)ccc1Cl` [Ia-53], the “efficacy (laying of fertile eggs)” value (in the data set with Boophilus microplus; in data set [3]) was 100% in each case. Further, the efficacy in the data set with Spodoptera frugiperda is 100%; in the data set with Phaedon cochleariae, 100%; in the data set with Tetranychus urticae [1] it was 99%; with Ctenocephalides felis [2], 90%; in the data set on Rhipicephalus sanguineus (setting [9]) it was 100%. The “efficacy (rate of extermination)” value with Musca domestica and in the data set on Ctenocephalides felis [4] was 100% each time.

For the molecule `O=C(NCc1cc(-c2cnn(-c3c(Cl)cc(C(F)(C(F)(F)F)C(F)(F)F)cc3OC(F)(F)F)c2)ccc1Cl)C1CC1` [Ia-56], in the data set with Boophilus microplus, the “efficacy (laying of fertile eggs)” value amounted to 100%. For the same molecule, the efficacy with Spodoptera frugiperda, in the data set with Phaedon cochleariae, in the data set with Ctenocephalides felis [2] and with Rhipicephalus sanguineus (application rate 1 μg/cm^2 (=100 g/ha)) was 100% in each case. Further, the “efficacy (rate of extermination)” value in the data set on Musca domestica and in the data set on Ctenocephalides felis [4] was 100% each time. Further, in data set [5], the herbicidal efficacy was found to be 100%.

On to `O=C(NCc1cc(-c2cn(-c3c(Cl)cc(C(F)(C(F)(F)F)C(F)(F)F)cc3Cl)cn2)ccc1F)C1CC1` [I-T2-04], for which the “efficacy (laying of fertile eggs)” value (in the data set on Boophilus microplus; in data set [3]) was 100% each time. The efficacy with Spodoptera frugiperda came out at 83%; with Phaedon cochleariae, 100%; in the data set with Tetranychus urticae [1], 100%; in the data set on Ctenocephalides felis [2], 100%. In addition, the “efficacy (rate of extermination)” value with Ctenocephalides felis [4] was determined as 100%.

For `CC(=O)NCc1cc(-c2cnn(-c3c(Cl)cc(C(F)(C(F)(F)F)C(F)(F)F)cc3C(F)(F)F)c2)ccc1Cl` [Ia-55], the “efficacy (laying of fertile eggs)” value in the data set with Boophilus microplus is given as 100%. Moreover, the efficacy with Spodoptera frugiperda was found to be 100%; with Phaedon cochleariae it was 100%; in the data set on Tetranychus urticae [1] it was 99%; in the data set on Ctenocephalides felis [2] it was 70%; in the data set on Rhipicephalus sanguineus (setting [9]), 100%. The “efficacy (rate of extermination)” value in the data set on Musca domestica and in the data set with Ctenocephalides felis [4] was 100% in each case.

Consider `CC(=O)N(Cc1cc(-c2cnn(-c3c(Cl)cc(C(F)(C(F)(F)F)C(F)(F)F)cc3Cl)c2)ccc1Cl)C(C)=O` [Ia-108, N-Acetyl-N-(2-chloro-5-{1-[2,6-dichloro-4-(1,1,1,2,3,3,3-heptafluoropropan-2-yl)phenyl]-1H-pyrazol-4-yl}benzyl)acetamide], for which the “efficacy (laying of fertile eggs)” value in the data set on Boophilus microplus turned out to be 100%. Also, the pest or weed control at 100 g/ha in the data set on Spodoptera frugiperda (Spodoptera frugiperda, 168 h, read-out: efficacy) is 100%; with Phaedon cochleariae (Phaedon cochleariae, 168 h, read-out: efficacy), 100%. The efficacy in the data set with Ctenocephalides felis [2] turned out to be 100%; with Tetranychus urticae [8], 90%; in the data set with Rhipicephalus sanguineus (setting [9]), 80%. Moreover, the mortality at 100 mg/m2 in data set [6] and in data set [7] was 90 to 100% throughout. For the same molecule, the “efficacy (rate of extermination)” value in the data set with Musca domestica and in the data set with Ctenocephalides felis [4] was 100% throughout. In addition, the mortality – broadly, the percentage killed – at 20 mg/m2 in [7] was 90 to 100%. The chromatographic logP – broadly, a lipophilicity value derived from retention on a column – was 5.14 (reversed-phase C18 HPLC column, logP, HPLC, C18, acetonitrile/water with formic acid (note a)) and 5.14 (reversed-phase C18 HPLC column, logP^a, HPLC-MS method a)).

For the molecule `CC(=O)NCc1cc(-c2cnn(-c3c(Cl)cc(C(F)(C(F)(F)F)C(F)(F)F)cc3Cl)c2)ccc1F` [Ia-15], the efficacy with Myzus persicae was found to be 90%; in the data set on Spodoptera frugiperda it was 100%; in the data set on Phaedon cochleariae, 100%; in the data set on Ctenocephalides felis [2] it was 100%; in the data set with Tetranychus urticae [8], 100%; in the data set on Rhipicephalus sanguineus (setting [9]), 100%. Also, the “efficacy (laying of fertile eggs)” value with Boophilus microplus is 100%; in data set [3], 90%. In addition, the “efficacy (rate of extermination)” value with Musca domestica and in the data set with Ctenocephalides felis [4] was 100% in each case. The “nematicidal efficacy (formation of galls)” value with Meloidogyne incognita turned out to be 90%.

Consider `CC(=O)NCc1cc(-c2cnn(-c3c(Cl)cc(C(F)(C(F)(F)F)C(F)(F)F)cc3OC(F)(F)F)c2)ccc1Cl` [Ia-57], for which, in the data set with Boophilus microplus, the “efficacy (laying of fertile eggs)” value is on record as 100%. Further, the efficacy was found to be 100% in the data set on Spodoptera frugiperda, 100% in the data set with Phaedon cochleariae, 99% with Tetranychus urticae [1] and 80% in the data set with Rhipicephalus sanguineus (setting [9]). In addition, the “efficacy (rate of extermination)” value in the data set on Musca domestica and with Ctenocephalides felis [4] was 100% in each case.
